Measured values as given in patent publication US20260297035A1, “PROTEIN KINASE INHIBITORS AND USES THEREOF” (DELiver Therapeutics, Inc., priority 2023, published 2026).
Where two headings read alike, the source gives them in different places.

Tests used:
NALM-21 = assay: In vitro cytotoxic activity (CellTiterGlo), NALM-21 (ALL); format: cell-based; conditions: Homo sapiens; 48-hours; read-out: NALM-21 LD50
Description: (§1) Non-metabolized targeted toxicity, or general toxicity, of compounds was assessed by treating a panel of selected cell lines in culture with a dilution series of test compounds and the lethal dose that will kill half of the cells (i.e., the LD50) was determined. Compounds herein were assayed against a panel of cytokine-independent Philadelphia chromosome (BCR-ABL1 translocation) positive (Ph+) leukemia and lymphoma cell lines along with several control cell lines that were ABL1-independent. The panel included murine cell lines BaF3-wildtype (wt), BaF3-mutants (BaF3-wt cells engineered to be reliant on various kinase domain mutations with the BCR-ABL1 fusion protein), and various ALL and CML human cell lines, including SD-1, TOM-1, NALM-21, K562, Jeko-1, BV173, and KCL-22.
(§2) To test the cytotoxic activity of compounds herein, 1.6E4 cells were plated in 96-well plates at a final volume of 135 μL per well. Compounds were then added to the wells. In general, final concentrations of compounds started at a maximum concentration of […] and were diluted by half-log concentrations down to a final concentration of 0.316 nM. However, different cell lines required varying drug concentration ranges for optimal LD50 calculations. To create half-log dilutions, 40 mM DMSO solutions of compounds were diluted in half-log iterations to generate 400× starting concentration of compounds in DMSO. The 400× compound solutions were then diluted by 40-fold by adding 5 μL of 400× DMSO stock to 195 μL cell culture media, generating 10× drug concentrations in cell culture media. Then 15 μL of the 10× drug solutions were added to the 135 μL volume of cell suspension, resulting in 1× final drug concentrations with 0.25% DMSO in all wells. 48-hours after adding compounds, cells were measured for relative viability to generate cytotoxicity curves associated with the varying concentrations of compounds. […] LD50 values were measured by normalizing luminescence intensity to the lowest drug concentration. GraphPad Prism was used to plot and calculate LD50 values from the cytotoxic kill curves. Curves were fit to a non-linear regression model, with compound concentration vs. response and variable slope (four parameters).

ABL1 T315I = biological target: T1, ABL1 T315I (Homo sapiens, UniProt P00519, T315I); assay: Z′-LYTE assay, ABL1 T315I; format: biochemical
T1 construct: The ABL1 variant polypeptides utilized contained the same polypeptide as the “isoahABL1(wt)” polypeptide except that each contained one corresponding amino acid substitution
Text: This Example describes a cell-free assay utilized to identify candidate compounds that bind to and inhibit protein kinase (PK) and PK variants. One assay is referred to as a “Z′-LYTE assay” and is an example of a labeled peptide cleavage assay. The fluorescence-based assay relies on the differential sensitivity of a small, dual-end-labelled peptide to cleavage by a protease, dependent on the phosphorylation state of the peptide (FIG. 1). The peptide substrate is end-labelled with two distinct fluorophores that comprise a Fluorescence Resonance Energy Transfer (FRET) pair.
In the absence of inhibitor, the kinase transfers the gamma-phosphate from ATP to the single, unique tyrosine, serine or threonine in the synthetic FRET peptide. The reaction conditions are titrated such that 10-40% of the peptide substrate is phosphorylated. In a second reaction, a site-specific protease that only recognizes and cleaves the non-phosphorylated FRET peptide is added. Cleavage interferes with FRET between the donor (i.e., coumarin) and the acceptor (i.e., fluorescein) fluorophores on the FRET-peptide substrate, unlike the phosphorylated, uncleaved peptide.
The Test Compounds are screened in 1% DMSO (final) in the well.
All Peptide/Kinase Mixtures are diluted to a 2× working concentration in the appropriate Kinase Buffer. The 2×ABL1 polypeptide/Tyr 02 substrate peptide mixture is prepared in 50 mM HEPES pH 7.5, 0.01% BRIJ-35, 10 mM MgCl2, 1 mM EGTA. The final 10 μL Kinase Reaction contains 0.3-1.2 ng ABL1 (or 1.36-6 ng ABL1(T315I)) and 2 μM Tyr 02 in 50 mM HEPES, pH 7.5, 0.01% BRIJ-35, 10 mM MgCl2, 1 mM EGTA. After the 1-hour Kinase Reaction incubation, 5 μL of a 1:128 dilution of Development Reagent A is added. The ABL1(wt) polypeptide utilized for the assay described in this Example was the “isoahABL1(wt)” polypeptide described herein (SEQ ID NO:4), which is referred to as “ABL1” in Table 1 and “ABL1(wt)” or “WT” in Table 3 of this Example. The ABL1 variant polypeptides utilized contained the same polypeptide as the “isoahABL1(wt)” polypeptide except that each contained one corresponding amino acid substitution chosen from E255K, F317I, F317L, G250E, T315I or Y253F. […]
All ATP Solutions are diluted to a 4× working concentration in Kinase Buffer (50 mM HEPES, pH 7.5, 0.01% BRIJ-35, 10 mM MgCl2, 1 mM EGTA). The ATP Km apparent (Km app) is previously determined using a Z′-LYTE assay.
Bar-coded Corning, low volume NBS, black 384-well plate (Corning Cat. #4514) • 1. […] Read on fluorescence plate reader and analyze the data

K562 = assay: In vitro cytotoxic activity (CellTiterGlo), K562 (CML); format: cell-based; conditions: Homo sapiens, 48-hours, read-out: K562 LD50
Description: as §1, §2

Cc1ccc(Nc2ncc3cccc(-c4ccc(F)cc4OC(C)C)c3n2)cc1NC(=O)c1ccc(C(=O)N(C)C)cc1 [Cmpd11, N1-(5-((8-(4-fluoro-2-isopropoxyphenyl)quinazolin-2-yl)amino)-2-methylphenyl)-N4,N4-dimethylterephthalamide]
IC50 (NALM-21): 446 nM
IC50 (ABL1 T315I; class by IC50 values in Table 5, read-out: inhibitor class of ABL(T315I) according to IC50): < 20 nM
IC50 (ABL1 T315I; test compounds, Z′-LYTE, read-out: IC50 values for test compounds, ABL1(T315I)): 1.89 nM
IC50 (K562): 403 nM
